Reference: ChEMBL document CHEMBL4316654, “Prenylated Acylphloroglucinols from Hypericum faberi” (J Nat Prod, 2019)

Tests used:
Format in all cases: functional, cell-based
PANC-1 = assay: Cytotoxicity against human PANC1 cells incubated for 48 hrs by MTT assay; details: PANC-1, 48 h
[1] = Cytotoxicity against human BIU87 cells incubated for 48 hrs by MTT assay; details: BIU87, 48 h
ECa-109 cell line = assay: Cytotoxicity against human ECA109 cells incubated for 48 hrs by MTT assay; details: ECa-109, 48 h

Structure (SMILES)	IC50 (PANC-1)	IC50 [1]	IC50 (ECa-109 cell line)
CCC(C)C(=O)c1c(O)c(C/C=C(\C)CCC=C(C)C)c(O)c2cc(-c3ccccc3)oc12 (stereo not given)	6.2 µM	–	–
CC(C)=CCC/C(C)=C/Cc1c(O)c(C(=O)C(C)C)c2oc(-c3ccc(O)cc3)cc2c1O	9 µM	–	–
CC(=O)O[C@H]1C(=O)[C@@]2(C)[C@H]([C@H](OC(=O)c3ccccc3)[C@]3(O)C[C@H](OC(=O)[C@H](O)[C@@H](NC(=O)c4ccccc4)c4ccccc4)C(C)=C1C3(C)C)[C@]1(OC(C)=O)CO[C@@H]1C[C@@H]2O [PACLITAXEL]	3.5 µM	2.1 µM	1.2 µM
